Source: patent publication US9611278B2 (Merck Sharp & Dohme Corp., priority 2013, dated 2017)

Legend:
[1] = system: Spontaneously hypertensive rats (SHR); assay: Acute Efficacy in Spontaneously Hypertensive Rats (SHR); format: in vivo, rat; details: single oral dose, P.O. 1 mpk
Text: Spontaneously hypertensive rats (SHR, male, Charles River) were implanted with DSI TA11PA-C40 telemetry device (Data Sciences, Inc., St. Paul, Minn.) under isoflurane or ketamine/metomidine anesthesia. The telemetry unit catheter was inserted into the descending aorta via the femoral artery and the telemetry device was implanted subcutaneously in the left flank area. Animals were allowed to recover from surgery for 14 days before the start of any studies. Blood pressure, heart rate, and activity signals from conscious, freely moving rats were recorded continuously for 30 seconds every 10 min. On the day prior to administration of compound, a single oral dose of vehicle (10% transcutol/20% Cremophor/70% water) was administered to all animals to establish baseline control data. The blood pressure lowering efficacy of compound (PO) or vehicle was evaluated following a single oral gavage. Data were collected as hourly averages, and changes in blood pressure were calculated by subtracting control baseline data on an hourly basis. Animals were maintained on normal diet with a 12 hour light-dark cycle.
Maximum peak decreases of systolic blood pressure (SBP) in SHR at a particular P.O. dose (mpk milligrams per kilogram) for the following representative compounds are provided in Table 9. Category A=SBP in SHRs <15 mmHg; Category B=SBP in SHRs 15-25 mmHg; Category C=SBP in SHRs >25 mmHg

[2] = biological target: T1, sGC α1/β1 heterodimer stably expressed in CHO-K1 cells (CHO-K1/sGC) (Homo sapiens, UniProt Q02108+Q02153); assay: Cell-based sGC Functional Assay (CASA Assay); details: for Emax: CHO-K1, activation as percentage of maximum cGMP production of Compound A (set to 100%), read-out: % Act.; for EC50: inflection point of cGMP generation in CHO-K1/sGC cells, 4P fit, 1 hr at 37° C., read-out: IP
T1 construct: expressed in transfected cells
T1 sequence (Q02108 1-690): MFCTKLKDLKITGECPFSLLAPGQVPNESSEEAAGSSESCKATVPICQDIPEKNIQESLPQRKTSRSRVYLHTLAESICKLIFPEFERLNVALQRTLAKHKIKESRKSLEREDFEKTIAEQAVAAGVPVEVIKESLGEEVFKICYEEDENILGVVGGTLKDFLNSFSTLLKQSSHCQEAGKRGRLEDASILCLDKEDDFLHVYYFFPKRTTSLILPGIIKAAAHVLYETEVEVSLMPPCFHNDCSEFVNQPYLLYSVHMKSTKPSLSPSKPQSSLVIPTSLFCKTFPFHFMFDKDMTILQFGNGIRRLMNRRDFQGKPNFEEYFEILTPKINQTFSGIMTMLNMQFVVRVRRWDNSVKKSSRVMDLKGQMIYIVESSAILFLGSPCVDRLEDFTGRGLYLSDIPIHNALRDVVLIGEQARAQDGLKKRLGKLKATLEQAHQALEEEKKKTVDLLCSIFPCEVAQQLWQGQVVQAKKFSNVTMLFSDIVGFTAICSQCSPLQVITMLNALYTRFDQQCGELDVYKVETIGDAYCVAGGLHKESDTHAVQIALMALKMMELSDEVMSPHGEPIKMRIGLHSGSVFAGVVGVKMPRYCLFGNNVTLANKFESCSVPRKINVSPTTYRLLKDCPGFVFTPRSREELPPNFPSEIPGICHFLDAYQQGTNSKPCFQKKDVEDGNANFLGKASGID
T1 sequence (Q02153 1-619): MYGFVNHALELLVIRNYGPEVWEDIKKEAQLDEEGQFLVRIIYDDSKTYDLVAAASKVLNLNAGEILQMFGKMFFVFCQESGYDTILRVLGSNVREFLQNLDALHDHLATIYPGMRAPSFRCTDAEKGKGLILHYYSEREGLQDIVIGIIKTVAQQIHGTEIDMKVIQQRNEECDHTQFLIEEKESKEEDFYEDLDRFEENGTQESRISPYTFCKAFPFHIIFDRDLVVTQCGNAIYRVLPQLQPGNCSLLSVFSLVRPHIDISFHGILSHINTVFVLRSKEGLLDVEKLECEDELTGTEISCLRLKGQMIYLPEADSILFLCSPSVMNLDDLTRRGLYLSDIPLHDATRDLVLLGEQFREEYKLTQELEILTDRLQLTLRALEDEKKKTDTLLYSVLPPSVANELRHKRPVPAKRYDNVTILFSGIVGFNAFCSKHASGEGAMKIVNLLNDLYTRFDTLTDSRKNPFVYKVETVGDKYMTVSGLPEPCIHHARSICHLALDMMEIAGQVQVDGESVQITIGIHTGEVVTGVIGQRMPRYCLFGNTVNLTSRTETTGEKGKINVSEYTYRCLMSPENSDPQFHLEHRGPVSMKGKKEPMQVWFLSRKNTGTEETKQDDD
How it was run: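 CHO-K1 cells stably expressing human sGC α1/β1 were incubated with compound for 1 h at 37 °C in buffer with 0.5 mM IBMX and 2.5% DMSO, with or without 1 μM DETA-NO. Intracellular cGMP was read by HTRF and expressed as percentage of maximal activation by reference activator Compound A. Values came from a 4-parameter fit.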

Compound	Category: maximum peak decrease of systolic blood pressure (SBP) in SHR [1]	Emax [2] [%]	EC50 [2] [nM]	% Act. ([2]; activation as percentage of maximum cGMP production of Compound A (set to 100%)) [%]
[2H]C([2H])([2H])n1ncc2c(-c3nc(N)c4c(n3)NC(=O)C4(c3nnc(C)o3)C3CC3)nc(CCC(F)(F)C(F)(F)F)nc21 (centres unmarked) [Example 40, 4-Amino-5-cyclopropyl-5-(5-methyl-1,3,4-oxadiazol-2-yl)-2-(1-(methyl-d3)-6-(3,3,4,4,4-pentafluorobutyl)-1H-pyrazolo[3,4-d]pyrimidin-4-yl)-5,7-dihydro-6H-pyrrolo[2,3-d]pyrimidin-6-one]	C (Category C=SBP in SHRs >25 mmHg)	–	–	–
Cn1ncc2c(-c3nc(N)c4c(n3)NC(=O)C4(c3nnc(C4(C)CC4)o3)C3CC3)nc(CCC(F)(F)C(F)(F)F)nc21 (centres unmarked) [Example 48, 4-Amino-5-cyclopropyl-2-(1-methyl-6-(3,3,4,4,4-pentafluorobutyl)-1H-pyrazolo[3,4-d]pyrimidin-4-yl)-5-(5-(1-methylcyclopropyl)-1,3,4-oxadiazol-2-yl)-5,7-dihydro-6H-pyrrolo[2,3-d]pyrimidin-6-one]	–	112	399	–
CCC1(c2cn(C)nn2)C(=O)Nc2nc(-c3nc(CCC(F)(F)C(F)(F)F)nc4c3cnn4C)nc(N)c21 (single isomer, unassigned) [Example 58, 4-Amino-5-ethyl-5-(1-methyl-1H-1,2,3-triazol-4-yl)-2-(1-methyl-6-(3,3,4,4,4-pentafluorobutyl)-1H-pyrazolo[3,4-d]pyrimidin-4-yl)-5,7-dihydro-6H-pyrrolo[2,3-d]pyrimidin-6-one]	–	105	713	–
[2H]C([2H])([2H])n1ncc2c(-c3nc(N)c4c(n3)NC(=O)C4(C)c3ncccn3)nc(CCC(F)(F)C(F)(F)F)nc21 (centres unmarked) [Example 9, 4-Amino-5-methyl-2-(1-(methyl-d3)-6-(3,3,4,4,4-pentafluorobutyl)-1H-pyrazolo[3,4-d]pyrimidin-4-yl)-5-(pyrimidin-2-yl)-5,7-dihydro-6H-pyrrolo[2,3-d]pyrimidin-6-one]	–	121	116	–
Cn1ncc2c(-c3nc(N)c4c(n3)NC(=O)C4(C)c3cn(C4CC4)nn3)nc(CCC(F)(F)C(F)(F)F)nc21 (centres unmarked) [Example 59, 4-Amino-5-(1-cyclopropyl-1H-1,2,3-triazol-4-yl)-5-methyl-2-(1-methyl-6-(3,3,4,4,4-pentafluorobutyl)-1H-pyrazolo[3,4-d]pyrimidin-4-yl)-5,7-dihydro-6H-pyrrolo[2,3-d]pyrimidin-6-one]	–	117	29	–
CC(C)Cn1cc(C2(C)C(=O)Nc3nc(-c4nc(CCC(F)(F)C(F)(F)F)nc5c4cnn5C)nc(N)c32)nn1 (centres unmarked) [Example 70, 34-Amino-5-(1-isobutyl-1H-1,2,3-triazol-4-yl)-5-methyl-2-(1-methyl-6-(3,3,4,4,4-pentafluorobutyl)-1H-pyrazolo[3,4-d]pyrimidin-4-yl)-5,7-dihydro-6H-pyrrolo[2,3-d]pyrimidin-6-one]	–	132	294	–
CCC1(c2nnc(C3CC3)o2)C(=O)Nc2nc(-c3nc(CCC(F)(F)C(F)(F)F)nc4c3cnn4C)nc(N)c21 (centres unmarked) [Example 53, 4-Amino-5-(5-cyclopropyl-1,3,4-oxadiazol-2-yl)-5-ethyl-2-(1-methyl-6-(3,3,4,4,4-pentafluorobutyl)-1H-pyrazolo[3,4-d]pyrimidin-4-yl)-5,7-dihydro-6H-pyrrolo[2,3-d]pyrimidin-6-one]	–	165	280	–
[2H]C([2H])([2H])n1cc(C2(C)C(=O)Nc3nc(-c4nc(CCC(F)(F)C(F)(F)F)nc5c4cnn5C([2H])([2H])[2H])nc(N)c32)nn1 (single isomer, unassigned) [Example 76, 4-Amino-5-methyl-5-(1-(methyl-d3)-1H-1,2,3-triazol-4-yl)-2-(1-(methyl-d3)-6-(3,3,4,4,4-pentafluorobutyl)-1H-pyrazolo[3,4-d]pyrimidin-4-yl)-5,7-dihydro-6H-pyrrolo[2,3-d]pyrimidin-6-one]	–	148	168	–
[2H]C([2H])([2H])n1ncc2c(-c3nc(N)c4c(n3)NC(=O)C4(c3nnc(C4CC4)o3)C3CC3)nc(CCC(F)(F)F)nc21 (centres unmarked) [Example 47, 4-Amino-5-cyclopropyl-5-(5-cyclopropyl-1,3,4-oxadiazol-2-yl)-2-(1-(methyl-d3)-6-(3,3,3-trifluoropropyl)-1H-pyrazolo[3,4-d]pyrimidin-4-yl)-5,7-dihydro-6H-pyrrolo[2,3-d]pyrimidin-6-one]	–	108	2080	–
Cn1cc(C2(C3CC3)C(=O)Nc3nc(-c4nc(CCC(F)(F)C(F)(F)F)nc5c4cnn5C)nc(N)c32)cn1 (centres unmarked) [Example 15, 4-Amino-5-cyclopropyl-5-(1-methyl-1H-pyrazol-4-yl)-2-(1-methyl-6-(3,3,4,4,4-pentafluorobutyl)-1H-pyrazolo[3,4-d]pyrimidin-4-yl)-5,7-dihydro-6H-pyrrolo[2,3-d]pyrimidin-6-one]	–	100	475	–
CC(C)n1cc(C2(C3CC3)C(=O)Nc3nc(-c4nc(CCC(F)(F)C(F)(F)F)nc5c4cnn5C)nc(N)c32)cn1 (centres unmarked) [Example 26, 4-Amino-5-cyclopropyl-5-(1-isopropyl-1H-pyrazol-4-yl)-2-(1-methyl-6-(3,3,4,4,4-pentafluorobutyl)-1H-pyrazolo[3,4-d]pyrimidin-4-yl)-5,7-dihydro-6H-pyrrolo[2,3-d]pyrimidin-6-one]	–	72	230	–
Cn1ncc2c(-c3nc(N)c4c(n3)NC(=O)C4(C)c3ccccn3)nc(CCC(F)(F)C(F)(F)F)nc21 (centres unmarked) [Example 22, 4-Amino-5-methyl-2-(1-methyl-6-(3,3,4,4,4-pentafluorobutyl)-1H-pyrazolo[3,4-d]pyrimidin-4-yl)-5-(pyridin-2-yl)-5,7-dihydro-6H-pyrrolo[2,3-d]pyrimidin-6-one]	–	103	71	–
CC(C)n1cc(C2(C)C(=O)Nc3nc(-c4nc(CCC(F)(F)C(F)(F)F)nc5c4cnn5C)ncc32)nn1 (centres unmarked) [Example 81]	–	102	620	–
[2H]C([2H])([2H])n1ncc2c(-c3nc(N)c4c(n3)NC(=O)C4(CC)c3nnc(C4CC4)o3)nc(CCC(F)(F)C(F)(F)F)nc21 (centres unmarked) [Example 42, 4-Amino-5-(5-cyclopropyl-1,3,4-oxadiazol-2-yl)-5-ethyl-2-(1-(methyl-d3)-6-(3,3,4,4,4-pentafluorobutyl)-1H-pyrazolo[3,4-d]pyrimidin-4-yl)-5,7-dihydro-6H-pyrrolo[2,3-d]pyrimidin-6-one]	–	120	887	–
4-Amino-5-cyclopropyl-2-(6-((3,3-difluorocyclobutyl)methyl)-1-methyl-1H-pyrazolo[3,4-d]pyrimidin-4-yl)-5-(5-ethyl-1,3,4-oxadiazol-2-yl)-5,7-dihydro-6H-pyrrolo[2,3-d]pyrimidin-6-one [Example 52]	–	–	90	148
